Data: patent US20260000629A1, “FERROPTOSIS INHIBITOR” (TOHOKU UNIVERSITY, priority 2020, published 2026)

Columns and labels:
[1] = tested on: H9C2 cell line; assay: Ferroptosis induction treatment, cell viability by WST-8 assay, H9C2 cell line; type: cell-based, rat; conditions: for decrease in the cell viability level caused by ferroptosis inducer: with 100 μM BSO, 2 μM elastin, 50 nM RSL3 or 0.5 μM FIN56, FIG. 1; for cell viability level compared with ferroptosis inducer alone: with 50 nM RSL3, 2 μM elastin, 0.3 μM ML210, 0.3 μM ML162, 0.5 μM FIN56, 100 μM BSO or 5 μM FINO2, FIG. 2
Description: Three different cell lines (the H9C2 cell line, which is a rat cardiac myoblast cell line, the NR[…] cell line, which is a rat kidney fibroblast, and the C2C12 cell line, which is a mouse myoblast cell line) were obtained from the American Type Culture Collection (ATCC); the Panc-1 cell line, which is a human pancreatic cancer cell line, was obtained the Cell Resource Center for Biomedical Research, Institute of Development, Aging and Cancer, Tohoku University/Cell Bank; and the HT22 cell line, which is a mouse hippocampus nerve cell line, was purchased from Merck Millipore Co. All the cell lines were subcultured in a Dulbecco's Modified Eagle Medium (DMEM) culture solution containing 100-fold diluted 1% penicillin-streptomycin (26253-84; manufactured by Nacalai Tesque, Inc.) (hereinafter simply referred to as “DMEM culture solution”) to which 10% fetal bovine serum (FBS) and 4.5 g glucose/L were added (hereinafter referred to as “DMEM [high glucose] culture solution”) under conditions of 5% CO2/20% O2 and 37° C. 4000 cells of five different cell lines (the H9C2 cell line, the Panc-1 cell line, the NR[…] cell line, the C2C12 cell line, and the HT22 cell line) were seeded on a 96-well plate and cultured overnight in a DMEM culture solution containing 1.0 g glucose/L (low glucose) and 1% FBS (hereinafter referred to as “DMEM [low glucose low serum] culture solution”). After the procedure of the above-mentioned, ferroptosis was induced in cells from the above-mentioned five different cell lines in the presence of each of […] of the present invention (vitamin K1, vitamin K2 [menaquinone-4], vitamin K3, or vitamin K3 hydroquinone) (see Table 1) or a known ferroptosis inhibitor (ferrostatin 1). Specifically, cells from the H9C2 cell line were cultured in the presence of each of six different test substances (10 μM vitamin K1 [manufactured by FUJIFILM Wako Pure Chemical Corporation], 10 μM menaquinone-4 [manufactured by Sigma-Aldrich], 3 μM or 1 μM menadione [manufactured by Sigma-Aldrich], 1 μM vitamin K3 hydroquinone [manufactured by Toronto Research Chemicals], or 0.3 μM ferrostatin 1 [manufactured by Cayman]) at various concentrations and each of eight different ferroptosis inducers (100 μM BSO [manufactured by Sigma-Aldrich], 1.5 μM or 2 μM elastin [manufactured by Cayman], 50 nM RSL3 [manufactured by Selleck Chemicals], 0.3 μM ML210 [manufactured by Cayman], 0.3 μM ML162 [manufactured by Cayman], 0.5 μM FIN56 [manufactured by Cayman], 5 μM FINO2 [manufactured by Cayman], or 4 mM glutamic acid [manufactured by Sigma-Aldrich]) for 60 hours for BSO treatment, for 48 hours for elastin treatment, RSL3 treatment, and FIN56 treatment, and for 24 hours for ML210 treatment, ML162 treatment, FINO2 treatment, and glutamic acid treatment. Cell viability levels were measured by WST-8 assay using Cell Count Reagent SF. The cell viability level was calculated as a relative value of the cell survival level when the cell viability level when cultured in the absence of a test substance and a ferroptosis inducer was set to 1.

[2] = tested on: NRK49F cell line; assay: Ferroptosis induction treatment, cell viability by WST-8 assay, NRK49F cell line; type: cell-based, rat; conditions: with 500 μM BSO, FIG. 3B
Description: (§1) Three different cell lines (the H9C2 cell line, which is a rat cardiac myoblast cell line, the NR[…] cell line, which is a rat kidney fibroblast, and the C2C12 cell line, which is a mouse myoblast cell line) were obtained from the American Type Culture Collection (ATCC); the Panc-1 cell line, which is a human pancreatic cancer cell line, was obtained the Cell Resource Center for Biomedical Research, Institute of Development, Aging and Cancer, Tohoku University/Cell Bank; and the HT22 cell line, which is a mouse hippocampus nerve cell line, was purchased from Merck Millipore Co. All the cell lines were subcultured in a Dulbecco's Modified Eagle Medium (DMEM) culture solution containing 100-fold diluted 1% penicillin-streptomycin (26253-84; manufactured by Nacalai Tesque, Inc.) (hereinafter simply referred to as “DMEM culture solution”) to which 10% fetal bovine serum (FBS) and 4.5 g glucose/L were added (hereinafter referred to as “DMEM [high glucose] culture solution”) under conditions of 5% CO2/20% O2 and 37° C. 4000 cells of five different cell lines (the H9C2 cell line, the Panc-1 cell line, the NR[…] cell line, the C2C12 cell line, and the HT22 cell line) were seeded on a 96-well plate and cultured overnight in a DMEM culture solution containing 1.0 g glucose/L (low glucose) and 1% FBS (hereinafter referred to as “DMEM [low glucose low serum] culture solution”). After the procedure of the above-mentioned, ferroptosis was induced in cells from the above-mentioned five different cell lines in the presence of each of five different vitamin K group compounds of the present invention (vitamin K1, vitamin K2 [menaquinone-4], vitamin K3, or vitamin K3 hydroquinone) (see Table 1) or a known ferroptosis inhibitor (ferrostatin 1). […] Cell viability levels were measured by WST-8 assay using Cell Count Reagent SF. The cell viability level was calculated as a relative value of the cell survival level when the cell viability level when cultured in the absence of a test substance and a ferroptosis inducer was set to 1.

[3] = tested on: Panc-1 cell line; assay: Ferroptosis induction treatment, cell viability by WST-8 assay, Panc-1 cell line; type: cell-based, human; conditions: with 5 μM elastin, FIG. 3A
Description: as §1

[4] = tested on: C2C12 cell line; assay: Ferroptosis induction treatment, cell viability by WST-8 assay, C2C12 cell line; type: cell-based, mouse; conditions: with 500 μM BSO, FIG. 3C
Description: as §1

[5] = tested on: lipid peroxy radicals (LOO·); assay: Scavenging ability against lipid peroxy radicals, AA/LOX system using NBD-Pen fluorescence probe; type: biochemical; conditions: 100 μM test substance; AA and LOX, PBS pH 7.4, 37° C.; vs absence of test substance; FIG. 6
Procedure: The scavenging ability against lipid peroxy radicals (LOO·) was analyzed by the AA/LOX system using an NBD-Pen fluorescence probe in accordance with the method in “Nat Chem Biol 12:608-613, 2016.” Specifically, a mixture solution of 0.1% DMSO or 100 μM each of four different test substances (vitamin K1 [manufactured by FUJIFILM Wako Pure Chemical Corporation], vitamin K2 [menaquinone-4; manufactured by Sigma-Aldrich], menadione [manufactured by Sigma-Aldrich], or vitamin K3 hydroquinone [manufactured by Toronto Research Chemicals]) and PBS (pH 7.4) containing 500 μM arachidonic acid (manufactured by Sigma-Aldrich) and 1 mM dithiothreitol (DTT) was prepared and added to a 96-well plate, then 5 μM NBD-Pen fluorescence probe and 10 μg/mL LOX solution (manufactured by Sigma-Aldrich) were added, and the fluorescence level (excitation light, 470 nm; fluorescence wavelength, 530 nm) was measured using a microplate reader (Spectra Max M2e; manufactured by Molecular Devices) at 37° C. […] In the AA/LOX system using an NBD-Pen fluorescence probe, an oxidation reaction of AA by LOX produces a lipid peroxide (LOOH), a lipid peroxy radical (LOO·) is produced from the produced LOOH by Fenton reaction using an iron ion (Fe^2+) as a catalyst, and a scavenging ability against lipid peroxy radicals is detected using the level of NBD-Pen-derived fluorescence produced by a reaction of the produced lipid peroxy radical with NBD-Pen as an indicator.

[6] = tested on: HT22 cell line; assay: Ferroptosis induction treatment (glutamic acid), cell viability by WST-8 assay, HT22 cell line; type: cell-based, mouse; conditions: with 4 mM glutamic acid, FIG. 4
Description: as §1

[7] = tested on: AHI model mice; assay: In vivo analysis using acute hepatic injury (AHI) model mice (LPS and D-GalN); set-up: species or system mouse; conditions: oral 20 mg/kg at 12 h and 2 h before LPS and D-GalN, vs AHI/solvent treatment group
Procedure: An AHI model mouse was prepared by administering lipopolysaccharide (LPS) and D-galactosamine (D-GalN). Specifically, eight to nine week-old wild-type male mice (C57BL/6N; manufactured by CLEA) were divided into three groups (the wild type group [n=4], the AHI/solvent treatment group [n=7], and the AHI/VK2 treatment group [n=8]). At 12 hours and two hours before administration of LPS and D-GalN, 0.5% methylcellulose solution (solvent) was orally administered at a dose of 20 mg/kg (body weight) to the AHI/solvent treatment group, and a methylcellulose solution containing vitamin K2 (menaquinone-4) was orally administered at a dose of 20 mg (vitamin K2)/kg (body weight) to the AHI/VK2 treatment group. For LPS and D-GalN administration, PBS containing LPS and D-GalN was injected into the peritoneal cavity at a dose of 5 μg (LPS)/kg (body weight) and 500 mg (D-GalN)/kg (body weight) to the two AHI groups (that is, the AHI/solvent treatment group and the AHI/VK2 treatment group) (refer to “Sci Rep 7:1884, 2017”). The mice were sacrificed at six hours after injection, and blood and liver tissue were collected. The plasma GPT levels were measured for the collected blood using Fuji Dri-chem Slide GPT/ALT-P III (manufactured by Fujifilm Medical). Further, the collected liver tissue was fixed in 10% neutral buffered formalin and embedded in paraffin. The paraffin-embedded liver tissue was sliced to prepare liver tissue sections and subjected to hematoxylin and eosin (HE) staining. Further, deparaffinization treatment was performed by heating the liver tissue sections in a 0.01 M citric acid buffer solution (pH 6.0) at 120° C. for five minutes to prepare deparaffinized liver tissue sections. Immunohistological staining of the deparaffinized liver tissue sections using an anti-HEL antibody (50-fold diluted; clone 5F12; manufactured by JaICA) was performed in accordance with a usual method using a streptavidin-biotin-alkaline phosphatase kit (Histofine SAB-AP [M] kit; manufactured by Nichirei Corporation) and Vector Red Substrate kit (manufactured by Vector Laboratories). Further, dead cells were detected by the TUNEL method using Apop Tag Peroxidase In Situ Apoptosis Detection Kit (manufactured by Merck Millipore).

Structure (SMILES)	decrease in the cell viability level caused by ferroptosis inducer ([1]; 1 μM test substance)	NBD-Pen fluorescence signal level (scavenging of lipid peroxy radicals) [5]	cell viability level compared with ferroptosis inducer alone ([1]; 10 μM test substance)	decrease in the cell viability level caused by ferroptosis inducer ([1]; 10 μM test substance)	decrease in the cell viability level caused by ferroptosis inducer ([2]; 10 μM test substance)	decrease in the cell viability level caused by ferroptosis inducer ([3]; 10 μM test substance)	decrease in the cell viability level caused by ferroptosis inducer ([4]; 10 μM test substance)	decrease in the cell viability level caused by ferroptosis inducer ([6]; 10 μM test substance)	other results
CC1=CC(=O)c2ccccc2C1=O [menadione, Menadione]	significantly suppressed	decreased							cell viability level compared with ferroptosis inducer alone ([1]; 3 μM test substance): significantly increased; decrease in the cell viability level caused by ferroptosis inducer ([2]; 3 μM test substance): significantly suppressed; decrease in the cell viability level caused by ferroptosis inducer ([3]; 3 μM test substance): significantly suppressed; decrease in the cell viability level caused by ferroptosis inducer ([4]; 3 μM test substance): significantly suppressed; decrease in the cell viability level caused by ferroptosis inducer ([6]; 3 μM test substance): significantly suppressed
CC(C)=CCCC(C)=CCCC(C)=CCC/C(C)=C/CC1=C(C)C(=O)c2ccccc2C1=O [vitamin K2, Menaquinone-4 (MK-4)]		decreased	significantly increased	significantly suppressed	significantly suppressed	significantly suppressed	significantly suppressed	significantly suppressed	HEL detection level in liver tissue (lipid peroxide marker) ([7]; FIG. 5A): substantially decreased; severe hemorrhage in the liver tissue (HE staining) ([7]; FIG. 5A): relieved; plasma GPT level ([7]; FIG. 5B): significantly decreased; proportion of dead cells in liver tissue (TUNEL method) ([7]; FIGS. 5A and 5C): significantly decreased
Cc1cc(O)c2ccccc2c1O [vitamin K3 hydroquinone, Menadiol]	significantly suppressed	decreased							
CCOC(=O)c1ccc(NC2CCCCC2)c(N)c1 [ferrostatin 1]									cell viability level compared with ferroptosis inducer alone ([1]; 0.3 μM test substance): significantly increased; decrease in the cell viability level caused by ferroptosis inducer ([1]; 0.3 μM test substance): significantly suppressed
CC1=C(C/C=C(\C)CCCC(C)CCCC(C)CCCC(C)C)C(=O)c2ccccc2C1=O (centres unmarked) [vitamin K1, Phylloquinone]		decreased	significantly increased	significantly suppressed	significantly suppressed	significantly suppressed	significantly suppressed	significantly suppressed	
